The values below come from patent US8546375B2, “(3-(4-(aminomethyl)phenoxy or phenylthio)azetidin-1-yl)(5-phenyl-1,3,4-oxadiazol-2-yl)methanone compounds” (AstraZeneca AB, priority 2010, dated 2013).

The structures appear in SMILES notation. Structures can show the parent of a compound that is named as a salt. Some results are limits rather than exact numbers.

For orientation: IC50 means the concentration that inhibits the measured activity by half.

For one assay, the target named is T1, Melanin Concentrating Hormone Receptor 1 (MCHR1) (Homo sapiens, UniProt Q99705).
T1 construct: expressed in transfected cells
T1 sequence (Q99705 whole entry): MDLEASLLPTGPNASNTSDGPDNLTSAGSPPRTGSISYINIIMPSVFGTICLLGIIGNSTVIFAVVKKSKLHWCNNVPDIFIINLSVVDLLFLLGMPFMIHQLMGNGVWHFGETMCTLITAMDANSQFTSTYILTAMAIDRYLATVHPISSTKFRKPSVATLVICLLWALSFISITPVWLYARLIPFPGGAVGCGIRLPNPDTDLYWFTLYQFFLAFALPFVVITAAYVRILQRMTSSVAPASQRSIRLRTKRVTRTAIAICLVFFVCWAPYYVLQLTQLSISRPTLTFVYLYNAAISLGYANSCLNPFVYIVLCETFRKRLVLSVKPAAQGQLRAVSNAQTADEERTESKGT
The experiment in a line: MCHR1 Receptor Activation Assay (GTPγ^35S). The assay is classed as biochemical. Conditions: read-out: GTPγ^35S IC50.
On to `CN(C)Cc1ccc(OC2CN(C(=O)c3nnc(-c4ccccc4)o3)C2)cc1` [Example 33, (3-(4-((Dimethylamino)methyl)phenoxy)azetidin-1-yl)(5-phenyl-1,3,4-oxadiazol-2-yl)methanone], for which the 50% inhibitory concentration (IC50) came out at 34 nM.
Still for that read-out and setting: then `CN(C)Cc1ccc(OC2CN(C(=O)c3nnc(-c4ccccc4)o3)C2)cc1Cl` [Example 48, (3-(3-Chloro-4-((dimethylamino)methyl)phenoxy)azetidin-1-yl)(5-phenyl-1,3,4-oxadiazol-2-yl)methanone], with 18 nM; and `Cc1cc(OC2CN(C(=O)c3nnc(-c4ccccc4)o3)C2)ccc1CN1CCC(C)(CO)CC1` [Example 69], with 22 nM.
For the molecule `COc1ccc(-c2nnc(C(=O)N3CC(Oc4ccc(CN5CCC(C)(CO)CC5)cc4)C3)o2)cc1` [Example 83, (3-(4-((4-(Hydroxymethyl)-4-methylpiperidin-1-yl)methyl)phenoxy)azetidin-1-yl)(5-(4-methoxyphenyl)-1,3,4-oxadiazol-2-yl)methanone], the half-inhibitory concentration (IC50) turned out to be 25 nM.
As for `Cc1ccc(-c2nnc(C(=O)N3CC(Oc4ccc(CN(C)C)c(C)c4)C3)o2)cc1` [Example 22, (3-(4-((Dimethylamino)methyl)-3-methylphenoxy)azetidin-1-yl)(5-p-tolyl-1,3,4-oxadiazol-2-yl)methanone], the IC50 worked out at 25 nM.
For the molecule `O=C(c1nnc(-c2ccccc2)o1)N1CC(Sc2ccc(CNC3CC3)cc2)C1` [Example 66, (3-(4-((Cyclopropylamino)methyl)phenylthio)azetidin-1-yl)(5-phenyl-1,3,4-oxadiazol-2-yl)methanone], the half-inhibitory concentration (IC50) worked out at 10 nM.
In the case of `CN(C)Cc1ccc(OC2CN(C(=O)c3nnc(-c4ccc(C(F)(F)F)cc4)o3)C2)cc1` [Example 35, (3-(4-((dimethylamino)methyl)phenoxy)azetidin-1-yl)(5-(4-(trifluoromethyl)phenyl)-1,3,4-oxadiazol-2-yl)methanone], the IC50 is 19 nM.
On the same count and under the same terms, as for `COc1ccc(-c2nnc(C(=O)N3CC(Oc4ccc(CN5CCC(C)(CO)C5)c(C)c4)C3)o2)cc1` (centres unmarked) [Example 91, (3-(4-((3-(hydroxymethyl)-3-methylpyrrolidin-1-yl)methyl)-3-methylphenoxy)azetidin-1-yl)(5-(4-methoxyphenyl)-1,3,4-oxadiazol-2-yl)methanone], the figure is 11 nM; as for `CCC1(CO)CCN(Cc2ccc(OC3CN(C(=O)c4nnc(-c5ccc(OC)cc5)o4)C3)cc2)CC1` [Example 92, (3-(4-((4-Ethyl-4-(hydroxymethyl)piperidin-1-yl)methyl)phenoxy)azetidin-1-yl)(5-(4-methoxyphenyl)-1,3,4-oxadiazol-2-yl)methanone], 15 nM.
With `COc1ccc(-c2nnc(C(=O)N3CC(Oc4ccc(CN5CCCC5)c(F)c4)C3)o2)cc1` [Example 32, (3-(3-Fluoro-4-(pyrrolidin-1-ylmethyl)phenoxy)azetidin-1-yl)(5-(4-methoxyphenyl)-1,3,4-oxadiazol-2-yl)methanone], the concentration for half-maximal inhibition (IC50) was 15 nM.
Still for that read-out and setting: as for `COc1ccc(-c2nnc(C(=O)N3CC(Oc4ccc(CN(C)C)cc4C)C3)o2)cc1` [Example 17, (3-(4-((Dimethylamino)methyl)-2-methylphenoxy)azetidin-1-yl)(5-(4-methoxyphenyl)-1,3,4-oxadiazol-2-yl)methanone], the figure is 25 nM; as for `Cc1ccc(-c2nnc(C(=O)N3CC(Oc4ccc(CN5CCCC5)cc4)C3)o2)cc1` [Example 6, (3-(4-(Pyrrolidin-1-ylmethyl)phenoxy)azetidin-1-yl)(5-p-tolyl-1,3,4-oxadiazol-2-yl)methanone hydrochloride], 19 nM; as for `CN(C)Cc1ccc(OC2CN(C(=O)c3nnc(-c4ccc(OC(F)F)cc4)o3)C2)cc1F` [Example 51, (5-(4-(Difluoromethoxy)phenyl)-1,3,4-oxadiazol-2-yl)(3-(4-((dimethylamino)methyl)-3-fluorophenoxy)azetidin-1-yl)methanone], 19 nM.
Turning to `CN(C)Cc1ccc(OC2CN(C(=O)c3nnc(-c4ccc(Cl)cc4)o3)C2)cc1` [Example 36, (5-(4-Chlorophenyl)-1,3,4-oxadiazol-2-yl)(3-(4-((dimethylamino)methyl)phenoxy)azetidin-1-yl)methanone], the IC50 was determined as 13 nM.
Still for that read-out and setting: as for `CN(C)Cc1ccc(OC2CN(C(=O)c3nnc(-c4ccc(OC(F)F)cc4)o3)C2)cc1` [Example 37, (5-(4-(Difluoromethoxy)phenyl)-1,3,4-oxadiazol-2-yl)(3-(4-((dimethylamino)methyl)phenoxy)azetidin-1-yl)methanone], the figure is 17 nM; as for `CC1(O)CCCN(Cc2ccc(OC3CN(C(=O)c4nnc(-c5ccccc5)o4)C3)cc2)CC1` (centres unmarked) [Example 87, (3-(4-((4-hydroxy-4-methylazepan-1-yl)methyl)phenoxy)azetidin-1-yl)(5-phenyl-1,3,4-oxadiazol-2-yl)methanone], 8.1 nM; as for `CCC1(O)CN(Cc2ccc(OC3CN(C(=O)c4nnc(-c5ccccc5)o4)C3)cc2C)C1` [Example 75, (3-(4-((3-Ethyl-3-hydroxyazetidin-1-yl)methyl)-3-methylphenoxy)azetidin-1-yl)(5-phenyl-1,3,4-oxadiazol-2-yl)methanone], 17 nM.
Take `COc1ccc(-c2nnc(C(=O)N3CC(Oc4ccc(CN(C)C)cc4)C3)o2)cc1` [Example 38, (3-(4-((Dimethylamino)methyl)phenoxy)azetidin-1-yl)(5-(4-methoxyphenyl)-1,3,4-oxadiazol-2-yl)methanone]: the IC50 turned out to be 27 nM.
On to `O=C(c1nnc(-c2ccccc2)o1)N1CC(Oc2ccc(CN3CC(O)C3)cc2Cl)C1` [Example 58, (3-(2-Chloro-4-((3-hydroxyazetidin-1-yl)methyl)phenoxy)azetidin-1-yl)(5-phenyl-1,3,4-oxadiazol-2-yl)methanone], for which the IC50 came out at 29 nM.
As for `CN1CCN(Cc2ccc(OC3CN(C(=O)c4nnc(-c5ccccc5)o4)C3)cc2Cl)CC1` [Example 50, (3-(3-Chloro-4-((4-methylpiperazin-1-yl)methyl)phenoxy)azetidin-1-yl)(5-phenyl-1,3,4-oxadiazol-2-yl)methanone], the IC50 was 35 nM.
As for `COc1ccc(-c2nnc(C(=O)N3CC(Oc4ccc(CN5CCCC5)c(C(F)(F)F)c4)C3)o2)cc1` [Example 46, (5-(4-Methoxyphenyl)-1,3,4-oxadiazol-2-yl)(3-(4-(pyrrolidin-1-ylmethyl)-3-(trifluoromethyl)phenoxy)azetidin-1-yl)methanone], the half-inhibitory concentration (IC50) was 18 nM.
Take `COc1ccc(-c2nnc(C(=O)N3CC(Oc4ccc(CN5CCN(C)CC5)cc4C)C3)o2)cc1` [Example 10, (5-(4-Methoxyphenyl)-1,3,4-oxadiazol-2-yl)(3-(2-methyl-4-((4-methylpiperazin-1-yl)methyl)phenoxy)azetidin-1-yl)methanone]: the IC50 was determined as 41 nM.
Consider `COCCN(C)Cc1ccc(SC2CN(C(=O)c3nnc(-c4ccccc4)o3)C2)cc1` [Example 61, (3-(4-(((2-Methoxyethyl)(methyl)amino)methyl)phenylthio)azetidin-1-yl)(5-phenyl-1,3,4-oxadiazol-2-yl)methanone hydrochloride], for which the IC50 stood at 22 nM.
On the same count and under the same terms, as for `COC1CN(Cc2ccc(SC3CN(C(=O)c4nnc(-c5ccccc5)o4)C3)cc2)C1` [Example 62, (3-(4-((3-Methoxyazetidin-1-yl)methyl)phenylthio)azetidin-1-yl)(5-phenyl-1,3,4-oxadiazol-2-yl)methanone], the figure is 13 nM; as for `COc1ccc(-c2nnc(C(=O)N3CC(Oc4ccc(CN5CCC(C)(CO)C5)cc4C)C3)o2)cc1` (centres unmarked) [Example 90, (3-(4-((3-(hydroxymethyl)-3-methylpyrrolidin-1-yl)methyl)-2-methylphenoxy)azetidin-1-yl)(5-(4-methoxyphenyl)-1,3,4-oxadiazol-2-yl)methanone], 16 nM; as for `CC(=O)N1CCN(Cc2ccc(OC3CN(C(=O)c4nnc(-c5ccccc5)o4)C3)cc2)CC1` [Example 23, 1-(4-(4-(1-(5-Phenyl-1,3,4-oxadiazole-2-carbonyl)azetidin-3-yloxy)benzyl)piperazin-1-yl)ethanone], 99 nM.
For the molecule `COc1cc(OC2CN(C(=O)c3nnc(-c4ccccc4)o3)C2)ccc1CN1CCOCC1` [Example 7, (3-(3-Methoxy-4-(morpholinomethyl)phenoxy)azetidin-1-yl)(5-phenyl-1,3,4-oxadiazol-2-yl)methanone], the IC50 is 21 nM.
As to `O=C(c1nnc(-c2ccccc2)o1)N1CC(Oc2ccc(CN3CCCC3)c(C(F)(F)F)c2)C1` [Example 45, (5-Phenyl-1,3,4-oxadiazol-2-yl)(3-(4-(pyrrolidin-1-ylmethyl)-3-(trifluoromethyl)phenoxy)azetidin-1-yl)methanone], the IC50 came to 16 nM.
With `O=C(c1nnc(-c2ccccc2)o1)N1CC(Oc2ccc(CN3CCCC3)c(F)c2)C1` [Example 31, (3-(3-Fluoro-4-(pyrrolidin-1-ylmethyl)phenoxy)azetidin-1-yl)(5-phenyl-1,3,4-oxadiazol-2-yl)methanone], the IC50 came out at 20 nM.

The assay is the same for the next values; noted with them: separated enantiomers of Example 84 (chiral chromatography fractions); assay not given; read-out: IC50.
For the molecule `COc1ccc(-c2nnc(C(=O)N3CC(Oc4ccc(CN5CCC(C)(CO)C5)cc4)C3)o2)cc1` (single isomer, unassigned; (+)) [Example E2, (+)(3-(4-((3-(hydroxymethyl)-3-methylpyrrolidin-1-yl)methyl)phenoxy)azetidin-1-yl)(5-(4-methoxyphenyl)-1,3,4-oxadiazol-2-yl)methanone], the 50% inhibitory concentration (IC50) was 24 nM.

The same assay, now with this note: when tested in the above referenced assays (MCH binding assay; MCHR1 receptor activation assay); read-out: IC50 value.
For `COc1ccc(-c2nnc(C(=O)N3CC(Oc4ccc(CN(C)C)c(OC(F)F)c4)C3)o2)cc1` [(3-(3-(difluoromethoxy)-4-((dimethylamino)methyl)phenoxy)azetidin-1-yl)(5-(4-methoxyphenyl)-1,3,4-oxadiazol-2-yl)methanone], the IC50 is not below 100 nM.
On to `COCCN(CCOC)Cc1ccc(OC2CN(C(=O)c3nnc(-c4ccccc4)o3)C2)cc1` [(3-(4-((bis(2-methoxyethyl)amino)methyl)phenoxy)azetidin-1-yl)(5-phenyl-1,3,4-oxadiazol-2-yl)methanone], for which the IC50 was not below 100 nM.
